Measured values as given in patent publication US7674819B2 (Warner-Lambert Company LLC, priority 2005, dated 2010).
Residue numbers refer to the chain shown, from its start. Read-outs that look alike come from different tables or passages of the source.

Columns and labels:
[1] = test system: spinal BMD; settings: after 7 years of treatment; cited from earlier work
[2] = molecular target: T1, hAR (Homo sapiens, UniProt P10275); experiment: Competitive binding of 3H-DHT to baculovirus/Sf9 generated hAR extracts; settings: one hour at 4° C., mean of multiple tests
T1 sequence (P10275 1-920): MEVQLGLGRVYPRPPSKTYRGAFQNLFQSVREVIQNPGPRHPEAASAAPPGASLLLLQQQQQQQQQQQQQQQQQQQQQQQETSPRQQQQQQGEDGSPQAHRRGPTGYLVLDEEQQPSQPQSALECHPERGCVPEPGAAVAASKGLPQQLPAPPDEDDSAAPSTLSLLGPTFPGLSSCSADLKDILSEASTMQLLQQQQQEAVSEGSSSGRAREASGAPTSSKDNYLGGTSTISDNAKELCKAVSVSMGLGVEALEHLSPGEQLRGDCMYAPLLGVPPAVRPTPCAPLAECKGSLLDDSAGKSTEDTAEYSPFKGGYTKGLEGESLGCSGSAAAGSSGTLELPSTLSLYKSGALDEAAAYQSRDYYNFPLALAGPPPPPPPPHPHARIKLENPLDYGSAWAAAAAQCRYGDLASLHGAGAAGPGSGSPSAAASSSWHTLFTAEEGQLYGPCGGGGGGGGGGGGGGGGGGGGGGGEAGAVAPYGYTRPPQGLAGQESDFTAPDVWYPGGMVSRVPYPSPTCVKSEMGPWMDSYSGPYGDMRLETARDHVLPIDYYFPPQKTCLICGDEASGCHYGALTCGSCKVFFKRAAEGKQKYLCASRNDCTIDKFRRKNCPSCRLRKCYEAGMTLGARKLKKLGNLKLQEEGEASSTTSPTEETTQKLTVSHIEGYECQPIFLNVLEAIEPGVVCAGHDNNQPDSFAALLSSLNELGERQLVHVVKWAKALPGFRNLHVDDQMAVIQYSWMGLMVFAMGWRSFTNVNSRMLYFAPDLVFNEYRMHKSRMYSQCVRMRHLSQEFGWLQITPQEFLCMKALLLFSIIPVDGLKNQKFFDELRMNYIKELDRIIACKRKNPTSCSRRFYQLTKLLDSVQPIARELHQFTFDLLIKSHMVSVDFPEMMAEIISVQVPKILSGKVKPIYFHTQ
Summary of the method: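 Baculovirus/Sf9-expressed hAR extract incubated with test compound, hydroxylapatite and 1 nM 3H-DHT tracer for 1 h at 4° C, then washed free of unbound tracer. Affinity given as concentration inhibiting half of maximal 3H-DHT binding.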

[3] = molecular target: T2, androgen receptor (Homo sapiens, UniProt P10275); experiment: AR Antagonist Cell Assay (MDA-MB453-MMTV clone 54-19, luciferase reporter); assay type: cell-based; settings: inhibition of induction by DHT (final concentration at 100 μM), 17 hr, compound 0.32-1000 nM, mean of multiple tests
T2 sequence (P10275 1-920 Q868H): T1 sequence (P10275 1-920) with Q868H
Summary of the method: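 MDA-MB453 breast tumour cells stably carrying an ARE-containing MMTV promoter driving firefly luciferase, plated overnight at 37° C in charcoal-treated serum medium. DHT added (final […]) and incubated 17 hr at 37° C. Luminescence read after adding luciferase buffer; values are means of multiple tests.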

[4] = IC50, concentration at which one half of maximum binding of 1 nM 3H-DHT to hAR is inhibited

| SMILES | increase in spinal BMD [1] [%] | melting point [°C] | IC50 [2, 4] [nM] | IC50 [3] [nM] | IC50 ([2]; concentration at which one half of maximum binding of 1 nM 3H-DHT to hAR is inhibited, read-out: IC50) [nM] | IC50 ([3]; read-out: IC50) [nM] |
| --- | --- | --- | --- | --- | --- | --- |
| NCCCC(O)(P(=O)(O)O)P(=O)(O)O [alendronate] | ≤ 11 |  |  |  |  |  |
| CSc1ccc(CN2CC(C)(C)C(Oc3ccc(C#N)c(C(F)(F)F)c3)C2=O)cc1 (racemic) [Example 22, (±)-4-[4,4-Dimethyl-1-(4-methylsulfanyl-benzyl)-2-oxo-pyrrolidin-3-yloxy]-2-trifluoromethyl-benzonitrile] |  | 44.1 to 44.8 | 40 | 99 |  |  |
| C[C@@H](c1ccc(F)cc1)N1CC(C)(C)[C@@H](Oc2ccc(C#N)c(C(F)(F)F)c2)C1=O (racemic) [Example 70, (±)-4-{1-[1-(4-Fluoro-phenyl)-ethyl]-4,4-dimethyl-2-oxo-pyrrolidin-3-yloxy}-2-trifluoromethyl-benzonitrile] |  | 82 to 83 | 52 | 85 |  |  |
| CC(c1cccc(O)c1)N1CC(C)(C)C(Oc2ccc(C#N)c(C(F)(F)F)c2)C1=O (single isomer, unassigned; (+)) [Example 24, (+)-4-{1-[1-(3-Hydroxy-phenyl)-ethyl]-4,4-dimethyl-2-oxo-pyrrolidin-3-yloxy}-2-trifluoromethyl-benzonitrile] |  | 185.1 to 185.8 | 10 | 33 |  |  |
| C[C@@H](c1ccc(F)cc1)N1CC(C)(C)[C@@H](Oc2ccc(C#N)c(C(F)(F)F)c2)C1=O (mixture of isomers) [Example 71, (±)-4-{1-[1-(4-Fluoro-phenyl)-ethyl]-4,4-dimethyl-2-oxo-pyrrolidin-3-yloxy}-2-trifluoromethyl-benzonitrile] |  | 114 to 115 |  |  |  |  |
| CC1(C)CN(Cc2cccc(O)c2)C(=O)C1Oc1ccc(C#N)c(C(F)(F)F)c1 (single isomer, unassigned; (+)) [Example 14, (+)-4-[1-(3-Hydroxy-benzyl)-4,4-dimethyl-2-oxo-pyrrolidin-3-yloxy]-2-trifluoromethyl-benzonitrile] |  |  | 23 | 99 |  |  |
| CCCC(=O)N1CC(C)(C)C(Oc2ccc(C#N)c(C(F)(F)F)c2)C1=O (single isomer, unassigned; (+)) [Example 103, (+)-4-(1-Butyryl-4,4-dimethyl-2-oxo-pyrrolidin-3-yloxy)-2-trifluoromethyl-benzonitrile (single enantiomer)] |  |  |  |  | 130 | 125 |
| CC1(C)CN(S(=O)(=O)C2CC2)C(=O)C1Oc1ccc(C#N)c(C(F)(F)F)c1 (centres unmarked) [Example 83, 4-(1-Cyclopropanesulfonyl-4,4-dimethyl-2-oxo-pyrrolidin-3-yloxy)-2-trifluoromethyl-benzonitrile] |  |  | 50 |  |  | 205 |
